Values after ≈ are worked out from the molar mass of the structure shown. Like-named read-outs stand apart in the source and are kept apart here.
Experiments:
Escherichia coli O 78 = assay: In vitro antibacterial activity (MIC), agar two-fold dilution; type: cell-based; settings: 10^7 CFU/ml, 37° C., 18 hours
Protocol: (§1) The numbers in Tables represent the minimal inhibitory concentration (MIC, μg/ml) of the corresponding strains and MIC was determined in accordance with the agar culture medium two-fold dilution method by using a Mueller-Hinton agar.
(§2) Hoechst standard strains were used. […]

[1] = system: Klebsiella aerogenes 1082E; assay: as above; type: cell-based
Protocol: as §1, §2

[2] = system: Klebsiella aerogenes 1552E; assay: as above; type: cell-based
Protocol: as §1, §2

[3] = system: Pseudomonas aeruginosa 1592E; assay: as above; type: cell-based
Protocol: as §1, §2

[4] = system: Pseudomonas aeruginosa 1771; assay: as above; type: cell-based
Protocol: as §1, §2

[5] = system: Pseudomonas aeruginosa 9027; assay: as above; type: cell-based
Protocol: as §1, §2

Salmonella typhimurium = assay: as above; type: cell-based
Protocol: as §1, §2

[6] = system: Staphylococcus aureus 285; assay: as above; type: cell-based
Protocol: as §1, §2

[7] = system: Staphylococcus aureus 503; assay: as above; type: cell-based
Protocol: as §1, §2

[8] = system: Staphylococcus aureus SG 511; assay: as above; type: cell-based
Protocol: as §1, §2

[9] = system: Streptococcus faecium MD 8b; assay: as above; type: cell-based
Protocol: as §1, §2

[10] = system: Streptococcus pyogenes 308A; assay: as above; type: cell-based
Protocol: as §1, §2

[11] = system: Streptococcus pyogenes 77A; assay: as above; type: cell-based
Protocol: as §1, §2

Escherichia coil 1507E = assay: as above; type: cell-based, Escherichia coli; settings: Mueller-Hinton agar, 10^7 CFU/ml, 37° C., 18 hours
Protocol: as §1, §2

Escherichia coil DC 0 = assay: as above; type: cell-based, Escherichia coli
Protocol: as §1, §2

Escherichia coil DC 2 = assay: as above; type: cell-based, Escherichia coli
Protocol: as §1, §2

Escherichia coil TEM = assay: as above; type: cell-based, Escherichia coli
Protocol: as §1, §2

[12] = system: Enterobacter cloacae P 99; type: cell-based; settings: Mueller-Hinton agar, 10^7 CFU/ml, 37° C., 18 hours
Protocol: as §1
(§3) Hoechst standard strains were used.

[13] = system: Enterobacter cloacae 1321E; assay: In vitro antibacterial activity (MIC), agar two-fold dilution; type: cell-based; settings: Mueller-Hinton agar, 10^7 CFU/ml, 37° C., 18 hours
Protocol: as §1, §3

[14] = system: Pseudomonas aeruginosa 1771M; assay: as above; type: cell-based; settings: 18 h
Protocol: as §1, §2

[15] = Klebsiella aerogenes 1082E, Mueller-Hinton agar, 10^7 CFU/ml, 37° C., 18 hours
[16] = Klebsiella aerogenes 1552E, Mueller-Hinton agar, 10^7 CFU/ml, 37° C., 18 hours
[17] = Pseudomonas aeruginosa 1592E, Mueller-Hinton agar, 10^7 CFU/ml, 37° C., 18 hours
[18] = Pseudomonas aeruginosa 1771, Mueller-Hinton agar, 10^7 CFU/ml, 37° C., 18 hours
[19] = Pseudomonas aeruginosa 9027, Mueller-Hinton agar, 10^7 CFU/ml, 37° C., 18 hours
[20] = Salmonella typhimurium, Mueller-Hinton agar, 10^7 CFU/ml, 37° C., 18 hours
[21] = Staphylococcus aureus 285, Mueller-Hinton agar, 10^7 CFU/ml, 37° C., 18 hours
[22] = Staphylococcus aureus 503, Mueller-Hinton agar, 10^7 CFU/ml, 37° C., 18 hours
[23] = Staphylococcus aureus SG 511, Mueller-Hinton agar, 10^7 CFU/ml, 37° C., 18 hours
[24] = Streptococcus faecium MD 8b, Mueller-Hinton agar, 10^7 CFU/ml, 37° C., 18 hours
[25] = Streptococcus pyogenes 308A, Mueller-Hinton agar, 10^7 CFU/ml, 37° C., 18 hours
[26] = Streptococcus pyogenes 77A, Mueller-Hinton agar, 10^7 CFU/ml, 37° C., 18 hours
[27] = Escherichia coil DC 0, Mueller-Hinton agar, 10^7 CFU/ml, 37° C., 18 hours
[28] = Escherichia coil DC 2, Mueller-Hinton agar, 10^7 CFU/ml, 37° C., 18 hours
[29] = Escherichia coil TEM, Mueller-Hinton agar, 10^7 CFU/ml, 37° C., 18 hours

Row | Structure (SMILES) | MIC (Escherichia coli O 78; Mueller-Hinton agar) [mg/L] | MIC [1, 15] [mg/L] | MIC [2, 16] [mg/L] | MIC [3, 17] [mg/L] | MIC [4, 18] [mg/L] | MIC [5, 19] [mg/L] | MIC (Salmonella typhimurium; [20]) [mg/L] | MIC [6, 21] [mg/L] | MIC [7, 22] [mg/L] | MIC [8, 23] [mg/L] | MIC [9, 24] [mg/L] | MIC [10, 25] [mg/L] | MIC [11, 26] [mg/L] | MIC (Escherichia coil 1507E) [mg/L] | MIC (Escherichia coil DC 0; [27]) [mg/L] | MIC (Escherichia coil DC 2; [28]) [mg/L] | MIC (Escherichia coil TEM; [29]) [mg/L] | MIC [12] [mg/L] | MIC [13] [mg/L] | further results
1 | COc1c(N2C[C@@H]3CCCN[C@@H]3C2)c(F)cc2c(=O)c(C(=O)C[N+](=O)[O-])cn(C3CC3)c12.Cl (racemic) [D, 1-cyclopropyl-3-nitroacetyl-6-fluoro-8-methoxy-7-[(cis-piperidinopyrrolidine)-8-yl]-4-oxo-1,4-dihydroquinoline hydrochloride] | 0.049 | 0.049 | 0.049 | 0.781 | 0.781 | 1.563 | 0.098 | 0.391 | 0.391 | 0.195 | 0.391 | 1.563 | 0.391 | 0.098 | 0.195 | 0.098 | 0.098 | 0.013 | 0.013 | –
2 | COc1c(N2CC3CCCNC3C2)c(F)cc2c(=O)c(C(=O)C[N+](=O)[O-])cn(C3CC3)c12.Cl (racemic) [C, 1-cyclopropyl-3-nitroacetyl-6-fluoro-8-methoxy-7-[(trans-piperidinopyrrolidine)-8-yl]-4-oxo-1,4-dihydroquinoline hydrochloride] | < 0.002 | 0.049 | 0.013 | 0.781 | 0.781 | 0.781 | 0.007 | 0.025 | 0.025 | 0.098 | 0.391 | 0.781 | 0.391 | 0.025 | 0.195 | 0.098 | 0.004 | 0.004 | < 0.002 | –
3 | O=C(O)c1cn(C2CC2)c2cc(N3CCNCC3)c(F)cc2c1=O [Ciprofloxacin, ciprofloxacin, reference compound] | – | – | – | – | – | – | – | – | – | – | – | – | – | – | – | – | – | – | – | MIC (Escherichia coli O 78; O78, Mueller-Hinton agar, read-out: MIC): < 0.002 mg/L; MIC ([1]; Klebsiella aerogenes, 1082E, 18 h): < 0.002 mg/L; MIC ([2]; Klebsiella aerogenes, 1552E, 18 h): 0.013 mg/L (≈ 0.0392 µM); MIC ([3]; Pseudomonas aeruginosa, 1592E, 18 h): 0.195 mg/L (≈ 0.589 µM); MIC [14]: 0.049 mg/L (≈ 0.148 µM); MIC ([4]; Pseudomonas aeruginosa, 1771, 18 h): 0.195 mg/L (≈ 0.589 µM); MIC ([5]; Pseudomonas aeruginosa, 9027, 18 h): 0.391 mg/L (≈ 1.18 µM); MIC (Salmonella typhimurium; Salmonella enterica, TYPHIMURIUM, 18 h): 0.007 mg/L (≈ 0.0211 µM); MIC ([6]; Staphylococcus aureus, 285, 18 h): 0.391 mg/L (≈ 1.18 µM); MIC ([7]; Staphylococcus aureus, 503, 18 h): 0.781 mg/L (≈ 2.36 µM); MIC ([8]; Staphylococcus aureus, SG511, 18 h): 0.195 mg/L (≈ 0.589 µM); MIC ([9]; Enterococcus faecium, MD8B, 18 h): 0.781 mg/L (≈ 2.36 µM); MIC ([10]; Streptococcus pyogenes, 308A, 18 h): 3.12 mg/L (≈ 9.43 µM); MIC ([11]; Streptococcus pyogenes, 77A, 18 h): 0.781 mg/L (≈ 2.36 µM); MIC (Escherichia coil 1507E; read-out: MIC): 0.007 mg/L (≈ 0.0211 µM); MIC (Escherichia coil DC 0; Escherichia, DC0, 18 h): 0.195 mg/L (≈ 0.589 µM); MIC (Escherichia coil DC 2; Escherichia, DC2, 18 h): 0.098 mg/L (≈ 0.296 µM); MIC (Escherichia coil TEM; Escherichia, 18 h): 0.007 mg/L (≈ 0.0211 µM)
4 | Cl.O=C(C[N+](=O)[O-])c1cn(C2CC2)c2c(Cl)c(N3CC4CCCNC4C3)c(F)cc2c1=O (racemic) [B, 1-cyclopropyl-3-nitroacetyl-6-fluoro-8-chloro-7-[(trans-piperidinopyrrolidine)-8-yl]-4-oxo-1,4-dihydroquinoline hydrochloride] | < 0.025 | 0.098 | 0.098 | 0.781 | 1.563 | 0.781 | 0.049 | 0.098 | 0.195 | 0.098 | 0.195 | 0.781 | 0.195 | 0.049 | 0.391 | 0.098 | 0.049 | 0.025 | 0.013 | –
5 | O=C(O)c1cn(C2CC2)c2c(Cl)c(N3CC4CCCNC4C3)c(F)cc2c1=O (stereo not drawn) [A, 1-cyclopropyl-6-fluoro-7-[(trans-piperidinopyrrolidine)-8-yl]-8-chloro-1,4-dihydroguinoline-4-oxo-3-carboxylicacid] | < 0.002 | < 0.002 | 0.049 (≈ 0.121 µM) | 0.781 (≈ 1.92 µM) | 0.781 (≈ 1.92 µM) | 0.781 (≈ 1.92 µM) | < 0.002 | 0.025 (≈ 0.0616 µM) | 0.025 (≈ 0.0616 µM) | 0.025 (≈ 0.0616 µM) | 0.098 (≈ 0.241 µM) | 0.391 (≈ 0.963 µM) | 0.098 (≈ 0.241 µM) | 0.025 (≈ 0.0616 µM) | 0.195 (≈ 0.48 µM) | 0.013 (≈ 0.032 µM) | 0.007 (≈ 0.0172 µM) | 0.004 (≈ 0.00986 µM) | < 0.002 | –
